Source: US9469650B2, “Melampomagnolide B derivatives” (BOARD OF TRUSTEES OF THE UNIVERSITY OF ARKANSAS, priority 2013, dated 2016)
Where two headings read alike, the source gives them in different places.

How the values were obtained:
MCF7 = test: panel of 60 human tumor cell lines, growth inhibition (Breast Cancer); settings: MCF7
K-562 = test: panel of 60 human tumor cell lines, growth inhibition (Leukemia); settings: K-562
HCT-116 = test: panel of 60 human tumor cell lines, growth inhibition (Colon Cancer); settings: HCT-116
UACC-62 = test: panel of 60 human tumor cell lines, growth inhibition (Melanoma); settings: UACC-62
OVCAR-3 = test: panel of 60 human tumor cell lines, growth inhibition (Ovarian Cancer); settings: OVCAR-3
786-0 = test: panel of 60 human tumor cell lines, growth inhibition (Renal Cancer); settings: 786-0
NCI-H226 = test: panel of 60 human tumor cell lines, growth inhibition (Non-Small Cell Lung Cancer); settings: NCI-H226
RXF 393 = test: panel of 60 human tumor cell lines, growth inhibition (Renal Cancer); settings: RXF 393

C=C1C(=O)O[C@H]2[C@H]1CC/C(COC(=O)N1CCN(C)CC1)=C\CC[C@@]1(C)O[C@@H]21 [JVM 2-44]
GI50 (MCF7): 3.14 µM | TGI (MCF7): 1.44E−5 | Mean Optical Densities (MCF7; Log10 Concentration −4.0): 0.116 | Percent Growth (MCF7; Log10 Concentration −4.0): −68% | Mean Optical Densities (MCF7; Log10 Concentration −5.0): 0.561 | Percent Growth (MCF7; Log10 Concentration −5.0): 13% | Mean Optical Densities (MCF7; Log10 Concentration −6.0): 1.725 | Percent Growth (MCF7; Log10 Concentration −6.0): 87% | Mean Optical Densities (MCF7; Log10 Concentration −7.0): 1.666 | Percent Growth (MCF7; Log10 Concentration −7.0): 83% | Mean Optical Densities (MCF7; Log10 Concentration −8.0): 1.767 | Percent Growth (MCF7; Log10 Concentration −8.0): 89% | GI50 (K-562): 4.25 µM | TGI (K-562): 2.82E−5 | Mean Optical Densities (K-562; Log10 Concentration −4.0): 0.152 | Percent Growth (K-562; Log10 Concentration −4.0): −25% | Mean Optical Densities (K-562; Log10 Concentration −5.0): 0.394 | Percent Growth (K-562; Log10 Concentration −5.0): 21% | Mean Optical Densities (K-562; Log10 Concentration −6.0): 1.109 | Percent Growth (K-562; Log10 Concentration −6.0): 99% | Mean Optical Densities (K-562; Log10 Concentration −7.0): 1.030 | Percent Growth (K-562; Log10 Concentration −7.0): 91% | Mean Optical Densities (K-562; Log10 Concentration −8.0): 1.141 | Percent Growth (K-562; Log10 Concentration −8.0): 103% | GI50 (HCT-116): 3.79 µM | TGI (HCT-116): 1.43E−5 | Mean Optical Densities (HCT-116; Log10 Concentration −4.0): 0.061 | Percent Growth (HCT-116; Log10 Concentration −4.0): −80% | Mean Optical Densities (HCT-116; Log10 Concentration −5.0): 0.598 | Percent Growth (HCT-116; Log10 Concentration −5.0): 15% | Mean Optical Densities (HCT-116; Log10 Concentration −6.0): 2.231 | Percent Growth (HCT-116; Log10 Concentration −6.0): 98% | Mean Optical Densities (HCT-116; Log10 Concentration −7.0): 2.250 | Percent Growth (HCT-116; Log10 Concentration −7.0): 99% | Mean Optical Densities (HCT-116; Log10 Concentration −8.0): 2.298 | Percent Growth (HCT-116; Log10 Concentration −8.0): 102% | GI50 (UACC-62): 6.56 µM | TGI (UACC-62): 2.14E−5 | Mean Optical Densities (UACC-62; Log10 Concentration −4.0): 0.089 | Percent Growth (UACC-62; Log10 Concentration −4.0): −83% | Mean Optical Densities (UACC-62; Log10 Concentration −5.0): 1.284 | Percent Growth (UACC-62; Log10 Concentration −5.0): 41% | Mean Optical Densities (UACC-62; Log10 Concentration −6.0): 2.153 | Percent Growth (UACC-62; Log10 Concentration −6.0): 89% | Mean Optical Densities (UACC-62; Log10 Concentration −7.0): 2.330 | Percent Growth (UACC-62; Log10 Concentration −7.0): 99% | Mean Optical Densities (UACC-62; Log10 Concentration −8.0): 2.369 | Percent Growth (UACC-62; Log10 Concentration −8.0): 101% | GI50 (OVCAR-3): 3.86 µM | TGI (OVCAR-3): 1.59E−5 | Mean Optical Densities (OVCAR-3; Log10 Concentration −4.0): 0.031 | Percent Growth (OVCAR-3; Log10 Concentration −4.0): −94% | Mean Optical Densities (OVCAR-3; Log10 Concentration −5.0): 0.743 | Percent Growth (OVCAR-3; Log10 Concentration −5.0): 24% | Mean Optical Densities (OVCAR-3; Log10 Concentration −6.0): 1.396 | Percent Growth (OVCAR-3; Log10 Concentration −6.0): 87% | Mean Optical Densities (OVCAR-3; Log10 Concentration −7.0): 1.594 | Percent Growth (OVCAR-3; Log10 Concentration −7.0): 107% | Mean Optical Densities (OVCAR-3; Log10 Concentration −8.0): 1.551 | Percent Growth (OVCAR-3; Log10 Concentration −8.0): 102% | GI50 (HL-60(TB)): 2530 nM | TGI (HL-60(TB)): 9.30E−6 | Mean Optical Densities (HL-60(TB); Log10 Concentration −4.0): 0.925 | Percent Growth (HL-60(TB); Log10 Concentration −4.0): −37% | Mean Optical Densities (HL-60(TB); Log10 Concentration −5.0): 1.432 | Percent Growth (HL-60(TB); Log10 Concentration −5.0): −3% | Mean Optical Densities (HL-60(TB); Log10 Concentration −6.0): 2.594 | Mean Optical Densities (HL-60(TB); Log10 Concentration −7.0): 2.607 | Percent Growth (HL-60(TB); Log10 Concentration −7.0): 87% | Mean Optical Densities (HL-60(TB); Log10 Concentration −8.0): 2.812 | Percent Growth (HL-60(TB); Log10 Concentration −8.0): 102% | CC50 (HL-60(TB); read-out: LC50): > 100 µM | GI50 (786-0): 6.53 µM | TGI (786-0): 2.42E−5 | Mean Optical Densities (786-0; Log10 Concentration −4.0): 0.194 | Percent Growth (786-0; Log10 Concentration −4.0): −64% | Mean Optical Densities (786-0; Log10 Concentration −5.0): 1.194 | Percent Growth (786-0; Log10 Concentration −5.0): 40% | Mean Optical Densities (786-0; Log10 Concentration −6.0): 2.074 | Percent Growth (786-0; Log10 Concentration −6.0): 94% | Mean Optical Densities (786-0; Log10 Concentration −7.0): 2.022 | Percent Growth (786-0; Log10 Concentration −7.0): 91% | Mean Optical Densities (786-0; Log10 Concentration −8.0): 2.113 | Percent Growth (786-0; Log10 Concentration −8.0): 96% | GI50 (NCI-H226): 12.4 µM | TGI (NCI-H226): 3.73E−5 | Mean Optical Densities (NCI-H226; Log10 Concentration −4.0): 0.601 | Percent Growth (NCI-H226; Log10 Concentration −4.0): −45% | Mean Optical Densities (NCI-H226; Log10 Concentration −5.0): 2.002 | Percent Growth (NCI-H226; Log10 Concentration −5.0): 60% | Mean Optical Densities (NCI-H226; Log10 Concentration −6.0): 2.540 | Percent Growth (NCI-H226; Log10 Concentration −6.0): 95% | Mean Optical Densities (NCI-H226; Log10 Concentration −7.0): 2.533 | Percent Growth (NCI-H226; Log10 Concentration −7.0): 94% | Mean Optical Densities (NCI-H226; Log10 Concentration −8.0): 2.561 | Percent Growth (NCI-H226; Log10 Concentration −8.0): 96% | GI50 (RXF 393): 2550 nM | TGI (RXF 393): 8.91E−6 | Mean Optical Densities (RXF 393; Log10 Concentration −4.0): 0.329 | Percent Growth (RXF 393; Log10 Concentration −4.0): −71% | Mean Optical Densities (RXF 393; Log10 Concentration −5.0): 1.871 | Percent Growth (RXF 393; Log10 Concentration −5.0): −5% | Mean Optical Densities (RXF 393; Log10 Concentration −6.0): 1.644 | Percent Growth (RXF 393; Log10 Concentration −6.0): 87% | Mean Optical Densities (RXF 393; Log10 Concentration −7.0): 1.692 | Percent Growth (RXF 393; Log10 Concentration −7.0): 96% | Mean Optical Densities (RXF 393; Log10 Concentration −8.0): 1.646 | Percent Growth (RXF 393; Log10 Concentration −8.0): 88%
